# From patent US11857519B2, “Compounds and methods for the targeted degradation of enhancer of zeste homolog 2 polypeptide” (Arvinas Operations, Inc., priority 2016, dated 2024)
# Molecular target: T1, EZH2 (Homo sapiens, UniProt Q15910)
# T1 construct: Protocol of the Cellular Assay of Target Protein Degradation (VCaP Cells, ELISA); endogenous in cells; host or cells: VCaP cells
# Test: Cellular assay of target protein degradation (VCaP cells, ELISA)
# Assay type: cell-based
# Conditions: 4 hours, protein degradation range at indicated concentration (relative to DMSO control)
# How it was run: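 VCaP cells grown ≥3 days in RPMI with 5% CSS, then dosed with compounds in 0.1% DMSO for 4 h. Lysates analysed by sandwich ELISA for EZH2 with TMB readout at 450 nm, 562 nm used for background subtraction.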
# T1 sequence (Q15910 whole entry): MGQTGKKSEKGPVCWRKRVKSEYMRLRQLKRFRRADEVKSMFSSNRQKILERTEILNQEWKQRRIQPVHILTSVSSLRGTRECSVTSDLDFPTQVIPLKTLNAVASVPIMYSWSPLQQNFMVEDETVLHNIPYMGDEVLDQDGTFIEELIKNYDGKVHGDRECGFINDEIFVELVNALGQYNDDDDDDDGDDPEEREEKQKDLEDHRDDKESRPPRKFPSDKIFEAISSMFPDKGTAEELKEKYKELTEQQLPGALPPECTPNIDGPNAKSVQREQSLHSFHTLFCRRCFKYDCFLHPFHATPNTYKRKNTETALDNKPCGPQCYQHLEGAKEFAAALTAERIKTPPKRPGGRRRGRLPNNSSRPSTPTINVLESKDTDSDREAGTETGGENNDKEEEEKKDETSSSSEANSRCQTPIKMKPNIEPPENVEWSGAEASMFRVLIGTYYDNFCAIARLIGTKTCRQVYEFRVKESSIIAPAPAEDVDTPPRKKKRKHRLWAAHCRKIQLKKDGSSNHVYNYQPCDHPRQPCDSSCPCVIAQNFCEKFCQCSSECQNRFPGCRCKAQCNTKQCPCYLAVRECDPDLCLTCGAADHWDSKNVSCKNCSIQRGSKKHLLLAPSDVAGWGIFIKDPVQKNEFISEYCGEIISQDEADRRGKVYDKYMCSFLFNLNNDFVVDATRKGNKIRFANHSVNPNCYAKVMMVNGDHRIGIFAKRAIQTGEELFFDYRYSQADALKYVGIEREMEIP
# T1 sequence (O75530 whole entry partner): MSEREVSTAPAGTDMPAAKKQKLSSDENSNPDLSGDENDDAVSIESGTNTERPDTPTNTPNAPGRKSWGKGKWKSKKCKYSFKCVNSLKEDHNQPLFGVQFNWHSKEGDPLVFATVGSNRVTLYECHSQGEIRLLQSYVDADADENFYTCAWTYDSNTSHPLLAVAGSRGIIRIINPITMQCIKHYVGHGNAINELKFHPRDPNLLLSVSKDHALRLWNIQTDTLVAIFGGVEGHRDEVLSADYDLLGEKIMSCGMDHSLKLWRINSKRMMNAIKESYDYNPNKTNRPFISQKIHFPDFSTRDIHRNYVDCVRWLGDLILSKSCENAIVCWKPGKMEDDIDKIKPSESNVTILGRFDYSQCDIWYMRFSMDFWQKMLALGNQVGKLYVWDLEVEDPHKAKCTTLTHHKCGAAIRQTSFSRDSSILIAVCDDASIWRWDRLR
# T1 sequence (Q15022 whole entry partner): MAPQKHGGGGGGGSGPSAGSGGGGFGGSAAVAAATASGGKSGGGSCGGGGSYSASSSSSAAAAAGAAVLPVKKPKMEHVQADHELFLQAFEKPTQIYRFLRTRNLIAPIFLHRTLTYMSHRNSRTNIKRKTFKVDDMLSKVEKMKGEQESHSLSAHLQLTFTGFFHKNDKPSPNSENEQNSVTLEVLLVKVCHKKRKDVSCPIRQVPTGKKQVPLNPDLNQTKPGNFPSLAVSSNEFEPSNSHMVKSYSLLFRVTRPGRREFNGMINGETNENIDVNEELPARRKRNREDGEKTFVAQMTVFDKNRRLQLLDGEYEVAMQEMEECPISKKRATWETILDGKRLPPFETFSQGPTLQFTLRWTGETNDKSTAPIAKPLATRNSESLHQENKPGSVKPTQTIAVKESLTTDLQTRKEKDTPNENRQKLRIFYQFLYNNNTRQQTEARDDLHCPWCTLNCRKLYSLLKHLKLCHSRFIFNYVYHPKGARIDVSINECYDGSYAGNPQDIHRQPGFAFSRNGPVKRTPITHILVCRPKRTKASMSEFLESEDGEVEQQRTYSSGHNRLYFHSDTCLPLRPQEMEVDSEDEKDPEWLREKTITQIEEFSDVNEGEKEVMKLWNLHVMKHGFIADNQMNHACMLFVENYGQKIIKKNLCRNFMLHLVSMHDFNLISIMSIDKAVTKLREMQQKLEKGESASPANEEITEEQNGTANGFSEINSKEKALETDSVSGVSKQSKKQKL
row,Structure (SMILES),percent target protein degradation class
1,"CCN(c1cc(-c2ccc(OCCCCOc3ccc4c(c3)C(=O)N([C@@H](C(=O)N3C[C@H](O)C[C@H]3C(=O)N[C@@H](C)c3ccc(-c5scnc5C)cc3)C(C)C)C4)cc2)cc(C(=O)NCc2c(C)cc(C)[nH]c2=O)c1C)C1CCOCC1 [Compound 101, (2S,4R)-1-((R)-2-(6-(4-((3′-(((4,6-dimethyl-2-oxo-1,2-dihydropyridin-3-yl)methyl)carbamoyl)-5′-(ethyl(tetrahydro-2H-pyran-4-yl)amino)-4′-methyl-[1,1′-biphenyl]-4-yl)oxy)butoxy)-1-oxoisoindolin-2-yl)-3-methylbutanoyl)-4-hydroxy-N-((S)-1-(4-(4-methylthiazol-5-yl)phenyl)ethyl)pyrrolidine-2-carboxamide]",B (B = degradation between 30% and 60%)
2,"CCN(c1cc(-c2ccc(OCCOCCOCCOCCOCCOCCOCCOCCNc3cccc4c3C(=O)N(C3CCC(=O)NC3=O)C4=O)cc2)cc(C(=O)NCc2c(C)cc(C)[nH]c2=O)c1C)C1CCOCC1 (stereo not shown) [Compound 22, N-[(4,6-dimethyl-2-oxo-1,2-dihydropyridin-3-yl)methyl]-5-[4-({1-[2-(2,6-dioxopiperidin-3-yl)-1,3-dioxo-2,3-dihydro-1H-isoindol-4-yl]-4,7,10,13,16,19,22-heptaoxa-1-azatetracosan-24-yl}oxy)phenyl]-3-[ethyl(oxan-4-yl)amino]-2-methylbenzamide]",B (B = degradation between 30% and 60%)
3,"Cc1cc(C)c(CNC(=O)c2c(C)n(C(C)C3CCN(C(=O)COCCOCCOCCNc4cccc5c4C(=O)N(C4CCC(=O)NC4=O)C5=O)CC3)c3ccccc23)c(=O)[nH]1 (stereo not shown) [Compound 7, N-[(4,6-dimethyl-2-oxo-1,2-dihydropyridin-3-yl)methyl]-1-[1-(1-{1-[2-(2,6-dioxopiperidin-3-yl)-1,3-dioxo-2,3-dihydro-1H-isoindol-4-yl]-4,7,10-trioxa-1-azadodecanoyl}piperidin-4-yl)ethyl]-2-methyl-1H-indole-3-carboxamide]",B (B = degradation between 30% and 60%)
4,"Cc1cc(C)c(CNC(=O)c2c(C)n(C(C)C3CCN(C(=O)COCCOCCOCCOCCOCC(=O)N[C@H](C(=O)N4C[C@H](O)C[C@H]4C(=O)NCc4ccc(-c5scnc5C)cc4)C(C)(C)C)CC3)c3ccccc23)c(=O)[nH]1 (stereo partly drawn) [Compound 11, N-[(4,6-dimethyl-2-oxo-1,2-dihydropyridin-3-yl)methyl]-1-{1-[1-(1-{[(2S)-1-[(2S,4R)-4-hydroxy-2-({[4-(4-methyl-1,3-thiazol-5-yl)phenyl]methyl}carbamoyl)pyrrolidin-1-yl]-3,3-dimethyl-1-oxobutan-2-yl]carbamoyl}-2,5,8,11,14-pentaoxahexadecanoyl)piperidin-4-yl]ethyl}-2-methyl-1H-indole-3-carboxamide]",B (B = degradation between 30% and 60%)
5,"Cc1cc(C)c(CNC(=O)c2cc(-c3ccc(CN4CCN(CCOCCCOCCCOCC(=O)N[C@H](C(=O)N5C[C@H](O)C[C@H]5C(=O)NCc5ccc(-c6scnc6C)cc5)C(C)(C)C)CC4)cc3)cc3c2ccn3C2CCCC2)c(=O)[nH]1 [Compound 4, 1-cyclopentyl-N-[(4,6-dimethyl-2-oxo-1,2-dihydropyridin-3-yl)methyl]-6-(4-{[4-(2-{3-[3-({[(2S)-1-[(2S,4R)-4-hydroxy-2-({[4(4-methyl-1,3-thiazol-5-yl)phenyl]methyl}carbamoyl)pyrrolidin-1-yl]-3,3-dimethyl-1-oxobutan-2-yl]carbamoyl}methoxy)propoxy]propoxy}ethyl)piperazin-1-yl]methyl}phenyl)-1H-indole-4-carboxamide]",B (B = degradation between 30% and 60%)

# Results, then the compound that gave them:
row,percent target protein degradation class,Structure (SMILES)
1,B (B = degradation between 30% and 60%),"CCN(c1cc(-c2ccc(OCCCOCCCOCCCOc3cc(-c4scnc4C)ccc3CNC(=O)[C@@H]3C[C@@H](O)CN3C(=O)[C@H](C(C)C)N3Cc4ccccc4C3=O)cc2)cc(C(=O)NCc2c(C)cc(C)[nH]c2=O)c1C)C1CCOCC1 [Compound 39, (2S,4R)-N-({2-[3-(3-{3-[4-(3-{[(4,6-dimethyl-2-oxo-1,2-dihydropyridin-3-yl)methyl]carbamoyl}-5-[ethyl(oxan-4-yl)amino]-4-methylphenyl)phenoxy]propoxy}propoxy)propoxy]-4-(4-methyl-1,3-thiazol-5-yl)phenyl}methyl)-4-hydroxy-1-[(2S)-3-methyl-2-(1-oxo-2,3-dihydro-1H-isoindol-2-yl)butanoyl]pyrrolidine-2-carboxamide]"
2,A (A = degradation more than 60%),"CCN(c1cc(-c2ccc(CCOCCOc3cc(C(C(=O)N4C[C@H](O)C[C@H]4C(=O)N[C@@H](C)c4ccc(-c5scnc5C)cc4)C(C)C)on3)cc2)cc(C(=O)NCc2c(C)cc(C)[nH]c2=O)c1C)C1CCOCC1 (stereo partly drawn) [Compound 110, (2S,4R)-1-(2-(3-(2-(2-(3′-(((4,6-dimethyl-2-oxo-1,2-dihydropyridin-3-yl)methyl)carbamoyl)-5′-(ethyl(tetrahydro-2H-pyran-4-yl)amino)-4′-methyl-[1,1′-biphenyl]-4-yl)ethoxy)ethoxy)isoxazol-5-yl)-3-methylbutanoyl)-4-hydroxy-N-((S)-1-(4-(4-methylthiazol-5-yl)phenyl)ethyl)pyrrolidine-2-carboxamide]"
3,A (A = degradation more than 60%),"CCN(c1cc(-c2ccc(OCCCCCCOc3cc(C(C(=O)N4C[C@H](O)C[C@H]4C(=O)N[C@@H](C)c4ccc(-c5scnc5C)cc4)C(C)C)on3)cc2)cc(C(=O)NCc2c(C)cc(C)[nH]c2=O)c1C)C1CCOCC1 (stereo partly drawn) [Compound 106, (2S,4R)-1-(2-(3-((6-((3′-(((4,6-dimethyl-2-oxo-1,2-dihydropyridin-3-yl)methyl)carbamoyl)-5′-(ethyl(tetrahydro-2H-pyran-4-yl)amino)-4′-methyl-[1,1′-biphenyl]-4-yl)oxy)hexyl)oxy)isoxazol-5-yl)-3-methylbutanoyl)-4-hydroxy-N-((S)-1-(4-(4-methylthiazol-5-yl)phenyl)ethyl)pyrrolidine-2-carboxamide]"
4,B (B = degradation between 30% and 60%),"CCN(c1cc(-c2ccc(OCCOCCOc3cc(-c4scnc4C)ccc3CNC(=O)[C@@H]3C[C@@H](O)CN3C(=O)[C@H](C(C)C)N3Cc4ccccc4C3=O)cc2)cc(C(=O)NCc2c(C)cc(C)[nH]c2=O)c1C)C1CCOCC1 [Compound 38, (2S,4R)-N-{[2-(2-{2-[4-(3-{[(4,6-dimethyl-2-oxo-1,2-dihydropyridin-3-yl)methyl]carbamoyl}-5-[ethyl(oxan-4-yl)amino]-4-methylphenyl)phenoxy]ethoxy}ethoxy)-4-(4-methyl-1,3-thiazol-5-yl)phenyl]methyl}-4-hydroxy-1-[(2S)-3-methyl-2-(1-oxo-2,3-dihydro-1H-isoindol-2-yl)butanoyl]pyrrolidine-2-carboxamide]"
5,A (A = degradation more than 60%),CCN(c1cc(-c2ccc(OCCOCCOc3cc(C(C(=O)N4C[C@H](O)C[C@H]4C(=O)N[C@@H](C)c4ccc(-c5scnc5C)cc4)C(C)C)on3)cc2)cc(C(=O)NCc2c(C)cc(C)[nH]c2=O)c1C)C1CCOCC1 (stereo partly shown) [Compound 105]
